# From ChEMBL document CHEMBL4665704, “Carneic Acids from an Endophytic Phomopsis sp. as Dengue Virus Polymerase Inhibitors” (J Nat Prod, 2020)
# Tests used:
# MRC5 = experiment: Antiproliferative activity against human MRC5 cells at 10 ug/ml after 72 hrs by resazurin dye-based spectrophotometric analysis relative to control; format: functional; details: dose 10 µg/ml
# Zika virus [1] = experiment: Inhibition of NS5 in Zika virus at 10 ug/ml after 10 mins in presence of nucleotide mix by fluorescence assay; details: dose 10.0 µg/ml
# Zika virus [2] = experiment: Inhibition of NS5 in Zika virus at 1 ug/ml after 10 mins in presence of nucleotide mix by fluorescence assay; details: dose 1.0 µg/ml
# Zika virus [3] = experiment: Inhibition of NS5 in Zika virus at 50 ug/ml after 10 mins in presence of nucleotide mix by fluorescence assay; details: dose 50.0 µg/ml
# Dengue virus [4] = experiment: Inhibition of DENV RNA-dependent RNA polymerase at 1 ug/ml; details: dose 1.0 µg/ml
# Dengue virus [5] = experiment: Inhibition of DENV RNA-dependent RNA polymerase at 10 ug/ml; details: dose 10.0 µg/ml
# [6] = Inhibition of DENV RNA-dependent RNA polymerase; set-up: species or system Dengue virus
# Dengue virus [7] = experiment: Inhibition of DENV RNA-dependent RNA polymerase at 50 ug/ml; details: dose 50.0 µg/ml
# Dengue virus [8] = experiment: Inhibition of DENV RNA-dependent RNA polymerase at 10 uM
inhibition (Zika virus [1]),inhibition (Zika virus [2]),inhibition (Zika virus [3]),inhibition (Dengue virus [4]),inhibition (Dengue virus [5]),IC50 [6],inhibition (Dengue virus [7]),inhibition (Dengue virus [8]),SMILES,Activity (MRC5)
21%,0%,38.3%,13.2%,51.2%,37.5 µM,75.5%,–,CC1=C[C@@H]2CCC[C@H](C)[C@H]2[C@H](/C=C/C=C/C(=O)O)[C@@H]1/C(C)=C/CO,100%
21.5%,1.2%,47.7%,2.8%,62.3%,15.5 µM,88.9%,–,C/C=C(\C)[C@@H]1C(C)=C[C@@H]2C[C@@H](OC(C)=O)C[C@H](C)[C@H]2[C@@H]1/C=C/C=C/C(=O)O,91.9%
6%,15.2%,15%,2%,49%,–,42.8%,–,CC1=C[C@@H]2C[C@@H](O)C[C@H](C)[C@H]2[C@H](/C=C/C=C/C(=O)O)[C@@H]1/C(C)=C/CO,79.3%
19.3%,13.8%,25.4%,0%,36.4%,–,64.6%,–,CC(=O)OC/C=C(\C)[C@@H]1C(C)=C[C@@H]2CC(=O)C[C@H](C)[C@H]2[C@@H]1/C=C/C=C/C(=O)O,98.8%
20.7%,3%,56.3%,10.5%,61%,13.6 µM,85.4%,–,CC(=O)OC/C=C(\C)[C@@H]1C(C)=C[C@@H]2CC[C@H](O)[C@H](C)[C@H]2[C@@H]1/C=C/C=C/C(=O)O,95.6%
18.1%,5.4%,39.6%,26%,40.2%,–,48.7%,–,CC(=O)OC/C=C(\C)[C@@H]1C(C)=C[C@@H]2CC[C@@H](O)[C@H](C)[C@H]2[C@@H]1/C=C/C=C/C(=O)O,93.5%
24.4%,6.3%,49.9%,7.9%,65.6%,11.8 µM,85.1%,–,C/C=C(\C)[C@@H]1C(C)=C[C@@H]2CC(=O)C[C@H](C)[C@H]2[C@@H]1/C=C/C=C/C(=O)O,96.9%
5.5%,8.5%,18.4%,6.5%,28.7%,–,43.9%,–,CC1=C[C@@H]2C[C@H](O)C[C@H](C)[C@H]2[C@H](/C=C/C=C/C(=O)O)[C@@H]1/C(C)=C/CO,85.8%
3.3%,0%,32%,4.7%,28.9%,–,52.3%,–,CC(=O)OC/C=C(\C)[C@@H]1C(C)=C[C@@H]2C[C@H](O)C[C@H](C)[C@H]2[C@@H]1/C=C/C=C/C(=O)O,98.5%
–,–,–,–,–,–,–,96.1%,Nc1ncnc2c1ncn2[C@@H]1O[C@H](COP(=O)(O)OP(=O)(O)OP(=O)(O)O)C[C@H]1O,–
23.3%,9.6%,40.9%,15.3%,59.4%,19 µM,78.1%,–,C/C=C(\C)[C@@H]1C(C)=C[C@@H]2C[C@@H](O)C[C@H](C)[C@H]2[C@@H]1/C=C/C=C/C(=O)O,97%
0%,0%,25.5%,0%,23.8%,–,36.7%,–,CC1=C[C@@H]2CC(=O)C[C@H](C)[C@H]2[C@H](/C=C/C=C/C(=O)O)[C@@H]1/C(C)=C/CO,100%
27.6%,4.9%,50.9%,6.4%,46%,19 µM,85%,–,C/C=C(\C)[C@@H]1C(C)=C[C@@H]2C[C@H](O)C[C@H](C)[C@H]2[C@@H]1/C=C/C=C/C(=O)O,99%
8%,4.8%,33.7%,0%,29.7%,–,42%,–,CC1=C[C@@H]2CC[C@@H](O)[C@H](C)[C@H]2[C@H](/C=C/C=C/C(=O)O)[C@@H]1/C(C)=C/CO,98.1%
